This is an account of results in patent publication US20220065865A1, “METHODS OF TREATMENT AND DIAGNOSIS OF TUMOURS” (UEA ENTERPRISES LIMITED, priority 2018, published 2022).

The test system of series [1] is chondrosarcoma tumour spheres (SW1353). Put plainly: Small molecule treatment of chondrosarcoma tumour spheres, nuclei counted by DAPI staining. To be noted: bone 3D tumour spheres; for cancer cell number in comparison with Control 1: 72 hours, Control 1 = 0.1% DMSO. It counts as cell-based, human. The procedure: (§1) SW1353 (chondrosarcoma) cells were cultured in 1:1 DMEM/F-12 Supplement (Thermo Fisher Scientific) containing 10% (volume/volume) fetal bovine serum (Sigma Aldrich). Cells were fed with culture medium every other day and maintained at 37° C. in a […] atmosphere of 5% CO2. Cells were obtained from ATCC and authenticated by STR profiling. Cells were regularly monitored for Mycoplasma infection by PCR. Phenotypic checks for interleukin 1 response ensured cell phenotype was maintained.
For the experiment reported in FIG. 8(b) the culture medium additionally contained 1% (v/v) penicillin streptomycin.
Tumour spheres were constructed as previously described (Greco, K. V. et al. High density micromass cultures of a human chondrocyte cell line: a reliable assay system to reveal the modulatory functions of pharmacological agents. Biochem Pharmacol 82, 1919-29 (2011), the contents of which are incorporated herein by reference). Briefly, 80% confluent monolayer cell cultures were released by trypsin-EDTA and resuspended in growth medium at a density of 4.1×10^4 cells/mL. Tumour spheres were achieved by pipetting 20 μL of cell suspension into individual wells of 24 well plates. Following a 3 hour intermolecular cohesion period 500 μL of growth medium was gently added. Cultures formed three dimensional spheres over the next 24 hours.
Growth media on chondrosarcoma tumour spheres was replaced with fresh media containing 0.1% DMSO (control 1), fresh media containing 0.2% DMSO (control 2), fresh media containing 50 μM small molecule 3-(N-(3,4-dichlorophenyl)carbamoyl)-5-norbornene-2-carboxylic acid, also named 3-{[(3,4-dichlorophenyl)amino]carbonyl}bicyclo[2.2.1]hept-5-ene-2-carboxylic acid, known as CADD522, fresh media containing 100 μM small molecule (CADD522). […] DAPI fluorescence was excited at 365 nm and emission collected between 420 and 470 nm. Nuclear DAPI staining was segmented with the number of the nuclei quantified using ImageJ. […] Statistical significance ([…]) was calculated using an unpaired t test with Prism 6.

For series [2] the test system is unchanged. Put plainly: Tumour sphere assay with LNA and RNA transfection, histology and fluorescence microscopy. It counts as cell-based, human. To be noted: 50 nM, 48 hours after transfection. As for the experimental part: as §1
Tumour spheres were constructed as previously described (Greco, K. V. et al. High density micromass cultures of a human chondrocyte cell line: a reliable assay system to reveal the modulatory functions of pharmacological agents. Biochem Pharmacol 82, 1919-29 (2011), the contents of which are incorporated herein by reference). Briefly, 80% confluent monolayer cell cultures were released by trypsin-EDTA and resuspended in growth medium at a density of 4.1×10^4 cells/mL. Tumour spheres were achieved by pipetting 20 μL of cell suspension into individual wells of 24 well plates. […]
Once tumour spheres had formed, tRF mimics (RNA), tRF inhibitors (LNA), miRNA mimics (LNA) and miRNA inhibitors (LNA) (Exiqon) were transfected using Lipofectamine 3000 (Thermo Fisher Scientific) in reduced serum media (Thermo Fisher Scientific) for a final concentration of 50 nM consisting of equal parts of each mimic or inhibitor (sequences in Table 1 above). Confirmation of cell entry at 50 nM concentration was determined after performing the transfection with FAM labelled sequences. […] Tumour spheres were subjected to histology, fluorescence microscopy and transcriptional profiling 48 hours later. […]
Tumour spheres were fixed in 3.7% formaldehyde and treated with 0.2% Triton-X 100. […] DAPI fluorescence was excited at 365 nm and emission collected between 420 and 470 nm. Texas Red-X Phalloidin fluorescence was excited at 558 nm and emission collected through a 615 nm LP filter. Nuclear DAPI staining was segmented with the number and size of the nuclei quantified using ImageJ.

The test system of the next series is SOX9. Put plainly: qPCR transcriptional profiling of transfected tumour spheres: SOX9. It counts as cell-based, human. To be noted: 50 nM mimic, pooled RNA of 6 replicates, normalised to ACTB, compared to control tissue. The procedure: (§2) Once tumour spheres had formed, tRF mimics (RNA), tRF inhibitors (LNA), miRNA mimics (LNA) and miRNA inhibitors (LNA) (Exiqon) were transfected using Lipofectamine 3000 (Thermo Fisher Scientific) in reduced serum media (Thermo Fisher Scientific) for a final concentration of 50 nM consisting of equal parts of each mimic or inhibitor (sequences in Table 1 above). Confirmation of cell entry at 50 nM concentration was determined after performing the transfection with FAM labelled sequences. After 6 hours of incubation reduced serum media containing mimics or inhibitors was replaced with fresh growth media. Tumour spheres were subjected to histology, fluorescence microscopy and transcriptional profiling 48 hours later. Transfections were performed in triplicate in 3 independent experiments.
(§3) We used qPCR as previously described (Fricke, C., Green, D., Smith, D., Dalmay, T. & Chapman, T. MicroRNAs influence reproductive responses by females to male sex peptide in Drosophila melanogaster. Genetics 198, 1603-19 (2014), the contents of which are incorporated herein by reference). Due to a limited amount of RNA, qPCR was performed on pools of control tissue, low grade, intermediate grade and high grade tumours. We also extracted and pooled RNA from 6 replicates of tumour spheres treated with a tRF-Gly-TCC mimic. […]
For orientation: Real-time PCR tracks product formation cycle by cycle.

The subject of another series is HDAC4. Put plainly: qPCR transcriptional profiling of transfected tumour spheres: HDAC4. It counts as cell-based, human. As to conditions: 50 nM mimic, pooled RNA of 6 replicates, normalised to ACTB, compared to high grade tumours. As for the experimental part:
as §2, §3

For another series, the system named is RUNX2. Put plainly: qPCR transcriptional profiling of transfected tumour spheres: RUNX2. It counts as cell-based, human. To be noted: 50 nM mimic, pooled RNA of 6 replicates, normalised to ACTB, compared to control tissue. As for the experimental part: as §2, §3
The test system of the next series is PTHLH. Put plainly: qPCR transcriptional profiling of transfected tumour spheres: PTHLH. It counts as cell-based, human. As to conditions: 50 nM mimic, pooled RNA of 6 replicates, normalised to ACTB. The procedure: as §2, §3
For another series, the system named is ANG. Put plainly: qPCR transcriptional profiling of transfected tumour spheres: ANG. It counts as cell-based, human. As to conditions: 50 nM mimic, pooled RNA of 6 replicates, normalised to ACTB. As for the experimental part: as §2, §3
The next series has as its system IHH. Put plainly: qPCR transcriptional profiling of transfected tumour spheres: IHH. It counts as cell-based, human. As to conditions: 50 nM mimic, pooled RNA of 6 replicates, normalised to ACTB. The procedure: as §2, §3
The test system of a further series is TP53. Put plainly: qPCR transcriptional profiling of transfected tumour spheres: TP53. It counts as cell-based, human. To be noted: 50 nM mimic, pooled RNA of 6 replicates, normalised to ACTB, compared to control tissues. The procedure:
as §2, §3

Series [3] relates to YBX1. Put plainly: qPCR transcriptional profiling of transfected tumour spheres: YBX1. It counts as cell-based, human. As to conditions: 50 nM mimic, pooled RNA of 6 replicates, normalised to ACTB. The procedure: as §2, §3
Series [4] concerns the target YBX1 (Homo sapiens, UniProt P67809). To be noted: Goodarzi et al., Cell 161, 790-802 (2015); cited from earlier work.

Sequence of YBX1 (Homo sapiens, UniProt P67809) (P67809 whole entry): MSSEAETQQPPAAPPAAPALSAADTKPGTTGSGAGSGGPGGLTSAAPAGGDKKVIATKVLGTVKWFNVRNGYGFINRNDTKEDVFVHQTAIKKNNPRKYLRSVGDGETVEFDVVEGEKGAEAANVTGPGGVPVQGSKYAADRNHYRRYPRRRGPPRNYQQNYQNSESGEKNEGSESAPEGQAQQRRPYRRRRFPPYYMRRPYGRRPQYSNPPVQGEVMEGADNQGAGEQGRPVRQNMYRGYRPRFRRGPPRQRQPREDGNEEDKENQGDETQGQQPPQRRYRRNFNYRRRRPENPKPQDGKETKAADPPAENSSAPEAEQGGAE

As for `O=C(O)C1C2C=CC(C2)C1C(=O)Nc1ccc(Cl)c(Cl)c1` (stereo not shown) [CADD522, 3-(N-(3,4-dichlorophenyl)carbamoyl)-5-norbornene-2-carboxylic acid], the “cancer cell number in comparison with Control 1” value in series [1] (50 μM) is “about 70%”; in series [1] (100 μM), “about 30%”. Also, the “cancer cell number compared to controls” value in series [1] (two biological replicate controls, unpaired t test) was “significant reduction of cancer cell number”.

For the compound “tRF-Gly-TCC mimic: RNA mimic, sequence GCGUUGGUGGUAUAGUGGUGAGCAUAGCUGCC (listed as RNA, chemistry not given here)”, in [2], the “decrease in nuclear area compared to untreated tumour spheres” value is given as “more than two-fold decrease in nuclear area”; the “phenotypic effect (nuclear and F-actin histology, inverted microscopy)” value was “low cancer cell number, shrunken nuclei and visible changes to morphology”. Besides, the “nuclear area of tumour spheres” value in series [2] (n=47 nuclei, untreated 488±12.4 μm^2 (n=230)) was 215±16.8 μm^2. Besides, in the series on SOX9, the “SOX9 mean relative expression” value is “remains at a reduced expression”. In addition, the “HDAC4 mean relative expression” value in the series on HDAC4 is listed as “increases further”. The “RUNX2 mean relative expression” value in the series with RUNX2 was “reduced to the same level of expression as control tissue”. Also, in the series on PTHLH, the PTHLP expression entry is given as “lost”. In addition, the “ANG mean relative expression” value in the series on ANG is listed as “greatly reduced”. For the same compound, in the series with IHH, the “IHH mean relative expression” value is given as “greatly reduced”. In the series with TP53, the “TP53 mean relative expression” value was “reduces to be consistent with control tissues”.

For “TRF-Gly-TCC: endogenous tRNA derived fragment containing a SCUBYC sequence motif (GCGUUGGUGGUAUAGUGGUGAGCAUAGCUGCC; listed as RNA, chemistry not fully specified)”, the “RUNX2 mean relative expression” value in the series with RUNX2 was “reduces RUNX2 expression to control levels”. In the series on YBX1 [3], the “YBX1 mean relative expression” value is “increased expression”. Besides, the “binding to YBX1” value in the series with YBX1 [4] is listed as “substantial binding”.
